Experimental data published in patent US4048431A, “Alkylated derivatives of antibiotic BM123γ” (American Cyanamid Company, priority 1975, dated 1977).

Each substance was assayed on Escherichia coli US311 (assay: in vivo protection of mice against lethal Escherichia coli US311 infection (single subcutaneous dose)). Settings: Carworth Farms CF-1 mice, about 20 gm., infected intraperitoneally with lethal dose of E. coli US311 (10^-3 TSP dilution of 5 hour TSP blood culture).
Set-up: species or system Escherichia coli US311 in Carworth Farms CF-1 mice
Description: These new substances show high in vivo antibacterial activity in mice against Escherichia coli US311 when administered by a single subcutaneous dose to groups of Carworth Farms CF-1 mice, weight about 20 gm., infected intraperitoneally with a lethal dose of this bacteria in a 10^- 3 trypticase soy broth TSP dilution of a 5 hour TSP blood culture. In Table VI below is set forth the in vivo activity of typical products of this invention (prepared from the indicated carbonyl reagents) against Escherichia coli US311 in mice. The activity is expressed in terms of the ED50 or the dose in mg./kg. of body weight required to protect 50% of the mice against E. coli.
With 1-methyloctyl-BM123γ the “ED50 (dose required to protect 50% of the mice against E. coli)” value was 0.37 mg./kg. of body weight. 1-methylpentyl-BM123γ was tested, and the “ED50 (dose required to protect 50% of the mice against E. coli)” value was 0.38 mg./kg. of body weight. With 1-methylpropyl-BM123γ the “ED50 (dose required to protect 50% of the mice against E. coli)” value was < 0.12 mg./kg. of body weight. For 1-methyltridecyl-BM123γ, the “ED50 (dose required to protect 50% of the mice against E. coli)” value was 2.0 mg./kg. of body weight. With 1-propylbutyl-BM123γ the “ED50 (dose required to protect 50% of the mice against E. coli)” value was 0.25 mg./kg. of body weight. In the case of 1-propylpentyl-BM123γ, the “ED50 (dose required to protect 50% of the mice against E. coli)” value is reported as 0.39 mg./kg. of body weight. In the case of 2,2,4,4-tetramethylcyclopentyl-BM123γ, the “ED50 (dose required to protect 50% of the mice against E. coli)” value is reported as 0.75 mg./kg. of body weight. In the case of 2,2-dimethylbutyl-BM123γ, the “ED50 (dose required to protect 50% of the mice against E. coli)” value is reported as 0.12 mg./kg. of body weight. In the case of 2,2-dimethylpropyl-BM123γ, the “ED50 (dose required to protect 50% of the mice against E. coli)” value is reported as 0.18 mg./kg. of body weight. With 2,4,4-trimethylcyclopentyl-BM123γ the “ED50 (dose required to protect 50% of the mice against E. coli)” value was 0.3 mg./kg. of body weight. In the case of 2,4-dimethylcyclopentyl-BM123γ, the “ED50 (dose required to protect 50% of the mice against E. coli)” value is reported as 0.18 mg./kg. of body weight. With 2-(1-cyclohexen)cyclohexyl-BM123γ the “ED50 (dose required to protect 50% of the mice against E. coli)” value was 0.19 mg./kg. of body weight. With 2-(p-methoxyphenyl)ethyl-BM123γ the “ED50 (dose required to protect 50% of the mice against E. coli)” value was 0.18 mg./kg. of body weight. With “2-(tert-butylcarbamoyl)-1-methyl-ethyl-BM123γ” the “ED50 (dose required to protect 50% of the mice against E. coli)” value was 0.38 mg./kg. of body weight. For 2-acetamido-1-methylpropyl-BM123γ, the “ED50 (dose required to protect 50% of the mice against E. coli)” value was 0.50 mg./kg. of body weight. With 2-cyclohexenyl-BM123γ the “ED50 (dose required to protect 50% of the mice against E. coli)” value was 0.25 mg./kg. of body weight. With 2-cyclohexylcyclohexyl-BM123γ the “ED50 (dose required to protect 50% of the mice against E. coli)” value was 0.75 mg./kg. of body weight. 2-cyclopentylcyclopentyl-BM123γ was tested, and the “ED50 (dose required to protect 50% of the mice against E. coli)” value was 0.37 mg./kg. of body weight. “2-ethyl-2-(3,4-dimethoxyphenyl)ethyl-BM123γ” was tested, and the “ED50 (dose required to protect 50% of the mice against E. coli)” value was 1.0 mg./kg. of body weight. In the case of 2-ethyl-2-butenyl-BM123γ, the “ED50 (dose required to protect 50% of the mice against E. coli)” value is reported as 0.18 mg./kg. of body weight. For 2-ethylcyclohexyl-BM123γ, the “ED50 (dose required to protect 50% of the mice against E. coli)” value was 0.19 mg./kg. of body weight. 2-ethylcyclopentyl-BM123γ was tested, and the “ED50 (dose required to protect 50% of the mice against E. coli)” value was 0.12 mg./kg. of body weight. 2-ethylhexyl-BM123γ was tested, and the “ED50 (dose required to protect 50% of the mice against E. coli)” value was 0.37 mg./kg. of body weight. With 2-ethylidenecyclohexyl-BM123γ the “ED50 (dose required to protect 50% of the mice against E. coli)” value was 0.12 mg./kg. of body weight. For 2-methylcyclopentyl-BM123γ, the “ED50 (dose required to protect 50% of the mice against E. coli)” value was 0.25 mg./kg. of body weight. In the case of 2-phenylcyclohexyl-BM123γ, the “ED50 (dose required to protect 50% of the mice against E. coli)” value is reported as 0.38 mg./kg. of body weight. 2-phenylethyl-BM123γ was tested, and the “ED50 (dose required to protect 50% of the mice against E. coli)” value was 0.18 mg./kg. of body weight. 3,3-dimethylcyclohexen(-4-)yl-BM123γ was tested, and the “ED50 (dose required to protect 50% of the mice against E. coli)” value was 0.37 mg./kg. of body weight. 3,5-dimethylcyclohexyl-BM123γ was tested, and the “ED50 (dose required to protect 50% of the mice against E. coli)” value was < 0.12 mg./kg. of body weight. 3-methyl-6-isopropylcyclohexyl-BM123γ was tested, and the “ED50 (dose required to protect 50% of the mice against E. coli)” value was 0.38 mg./kg. of body weight. With 3-methylcyclopentyl-BM123γ the “ED50 (dose required to protect 50% of the mice against E. coli)” value was 0.25 mg./kg. of body weight. In the case of 3-quinuclidinyl-BM123γ, the “ED50 (dose required to protect 50% of the mice against E. coli)” value is reported as 0.39 mg./kg. of body weight. With 3-tert-pentylcyclopentyl-BM123γ the “ED50 (dose required to protect 50% of the mice against E. coli)” value was 0.5 mg./kg. of body weight. In the case of 4-t-butylcyclohexyl-BM123γ, the “ED50 (dose required to protect 50% of the mice against E. coli)” value is reported as 0.12 mg./kg. of body weight. With 4-tetrahydrothiopyranyl-BM123γ the “ED50 (dose required to protect 50% of the mice against E. coli)” value was 0.38 mg./kg. of body weight. For 5-methoxyl-2-tetralyl-BM123γ, the “ED50 (dose required to protect 50% of the mice against E. coli)” value was 0.18 mg./kg. of body weight. With (1-methylcyclo-3-hexenyl)methyl-BM123γ the “ED50 (dose required to protect 50% of the mice against E. coli)” value was 0.18 mg./kg. of body weight. For (2-carboxy-1-carboxymethyl)ethyl-BM123γ, the “ED50 (dose required to protect 50% of the mice against E. coli)” value was 0.5 mg./kg. of body weight. In the case of adamantyl-2-BM123γ, the “ED50 (dose required to protect 50% of the mice against E. coli)” value is reported as 0.25 mg./kg. of body weight. With bicyclo[3.2.1]octanyl-2-BM123γ the “ED50 (dose required to protect 50% of the mice against E. coli)” value was < 0.25 mg./kg. of body weight. For cyclobutyl-BM123γ, the “ED50 (dose required to protect 50% of the mice against E. coli)” value was 0.38 mg./kg. of body weight. With cycloheptyl-BM123γ the “ED50 (dose required to protect 50% of the mice against E. coli)” value was 0.3 mg./kg. of body weight. For cyclohexyl-BM123γ, the “ED50 (dose required to protect 50% of the mice against E. coli)” value was 0.75 mg./kg. of body weight. With cyclononyl-BM123γ the “ED50 (dose required to protect 50% of the mice against E. coli)” value was 0.18 mg./kg. of body weight. In the case of cyclooctyl-BM123γ, the “ED50 (dose required to protect 50% of the mice against E. coli)” value is reported as 0.18 mg./kg. of body weight. With cyclopentyl-BM123γ the “ED50 (dose required to protect 50% of the mice against E. coli)” value was 0.25 mg./kg. of body weight. For decahydro-1-methyl-2-naphthyl-BM123γ, the “ED50 (dose required to protect 50% of the mice against E. coli)” value was 0.25 mg./kg. of body weight. In the case of decahydro-3-methyl-2-naphthyl-BM123γ, the “ED50 (dose required to protect 50% of the mice against E. coli)” value is reported as 0.37 mg./kg. of body weight. For ethyl-BM123γ, the “ED50 (dose required to protect 50% of the mice against E. coli)” value was 0.38 mg./kg. of body weight. For isopropyl-BM123γ, the “ED50 (dose required to protect 50% of the mice against E. coli)” value was < 0.12 mg./kg. of body weight. With methyl-BM123γ the “ED50 (dose required to protect 50% of the mice against E. coli)” value was 0.12 mg./kg. of body weight. In the case of norbornyl-BM123γ, the “ED50 (dose required to protect 50% of the mice against E. coli)” value is reported as 0.18 mg./kg. of body weight. In the case of trans-2-methyl-2-butenyl-BM123γ, the “ED50 (dose required to protect 50% of the mice against E. coli)” value is reported as 0.18 mg./kg. of body weight. trans-2-methyl-2-pentenyl-BM123γ was tested, and the “ED50 (dose required to protect 50% of the mice against E. coli)” value was 0.18 mg./kg. of body weight.
